Data published in patent US20250099468A1, “TREATING LIVER DISORDERS WITH AN SSAO INHIBITOR” (Terns Pharmaceuticals, Inc., priority 2021, published 2025).
“Also recorded” adds a separate entry of the source. Values belong to the compound of their own block, whether it stands above or below them.

Columns and labels:
[1] = Single-ascending dose clinical trial, safety; format: in vivo, human; settings: single dose 6 mg or placebo (n = 8)
Protocol: (§1) Safety was assessed for 7 (±3) days after dosing.

[2] = Single-ascending dose clinical trial, plasma PK; format: in vivo, human; settings: for plasma PK exposure increase with dose: single dose, between 3 and 10 mg
Protocol: as §1
(§2) Plasma PK parameters were determined by non-compartmental analysis.

plasma methylamine [3] = assay: Single-ascending dose trial, plasma methylamine (MMA); format: in vivo, human; settings: single dose 1-10 mg
Protocol: as §1

[4] = Multiple-ascending dose clinical trial, safety; format: in vivo, human
Protocol: (§3) A multiple-ascending dose clinical trial of Compound 1 was performed.

rat model of NASH = assay: Rat model of NASH; format: in vivo
MAO-B = molecular target: T1, MAO-B (Homo sapiens, UniProt P27338); assay: Biochemical activity, MAO-B; settings: all single dose levels (1-10 mg)
T1 sequence (P27338 1-520): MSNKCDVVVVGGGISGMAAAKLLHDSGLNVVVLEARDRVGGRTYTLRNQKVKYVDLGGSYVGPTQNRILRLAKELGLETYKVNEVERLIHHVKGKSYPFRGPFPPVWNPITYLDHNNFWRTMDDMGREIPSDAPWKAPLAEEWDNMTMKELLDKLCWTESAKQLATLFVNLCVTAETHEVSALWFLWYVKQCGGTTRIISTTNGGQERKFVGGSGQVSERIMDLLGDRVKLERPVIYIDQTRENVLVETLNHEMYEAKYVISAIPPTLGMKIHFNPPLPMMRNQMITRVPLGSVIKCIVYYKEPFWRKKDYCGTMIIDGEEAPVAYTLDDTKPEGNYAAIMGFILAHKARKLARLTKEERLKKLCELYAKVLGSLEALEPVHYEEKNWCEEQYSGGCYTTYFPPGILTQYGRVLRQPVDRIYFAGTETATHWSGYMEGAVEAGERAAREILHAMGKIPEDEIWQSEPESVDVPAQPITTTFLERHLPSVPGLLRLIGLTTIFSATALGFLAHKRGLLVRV

[5] = Multiple-ascending dose clinical trial, plasma PK; format: in vivo, human
Protocol: as §3

[6] = NASH patient study Part 1, safety; format: in vivo, human; settings: 10 mg QD 12 weeks, NASH patients
Protocol: (§4) Part 1 interim analysis primary endpoint was safety assessed by adverse events (AEs) and laboratory tests; percent change from baseline (BL) in plasma VAP-1 activity was a secondary endpoint. Exploratory imaging and blood-based biomarkers of liver inflammation and fibrosis were also assessed. Analyses of change (or percent change) from baseline used an ANCOVA model with change (or percent change) from baseline as the dependent variable including treatment group and randomization strata as fixed effects and baseline as a covariate.

plasma methylamine [7] = assay: Multiple-ascending dose trial, plasma methylamine; format: in vivo, human
Protocol: as §3

MAO-A = molecular target: T2, MAO-A (Homo sapiens, UniProt P21397); assay: Biochemical activity, MAO-A; settings: all single dose levels (1-10 mg)
T2 sequence (P21397 1-527): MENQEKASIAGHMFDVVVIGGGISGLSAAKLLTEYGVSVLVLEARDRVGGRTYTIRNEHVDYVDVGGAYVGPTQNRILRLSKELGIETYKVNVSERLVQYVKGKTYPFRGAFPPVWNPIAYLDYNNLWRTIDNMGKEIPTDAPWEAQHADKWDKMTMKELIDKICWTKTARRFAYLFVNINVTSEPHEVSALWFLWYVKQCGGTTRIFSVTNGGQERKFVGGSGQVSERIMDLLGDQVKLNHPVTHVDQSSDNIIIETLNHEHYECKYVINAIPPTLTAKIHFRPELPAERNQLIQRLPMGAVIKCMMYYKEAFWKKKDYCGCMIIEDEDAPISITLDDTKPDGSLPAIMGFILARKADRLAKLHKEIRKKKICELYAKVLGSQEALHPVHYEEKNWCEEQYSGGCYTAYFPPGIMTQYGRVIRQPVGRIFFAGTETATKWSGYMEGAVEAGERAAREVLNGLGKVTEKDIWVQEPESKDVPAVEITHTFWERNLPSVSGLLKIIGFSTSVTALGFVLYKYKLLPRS

plasma SSAO [8] = molecular target: T3, plasma SSAO (Homo sapiens, UniProt Q16853); assay: Single-ascending dose trial, plasma SSAO / amine oxidase activity; format: in vivo
T3 construct: from tissue; host or cells: human plasma
T3 sequence (Q16853 29-763 limits assumed): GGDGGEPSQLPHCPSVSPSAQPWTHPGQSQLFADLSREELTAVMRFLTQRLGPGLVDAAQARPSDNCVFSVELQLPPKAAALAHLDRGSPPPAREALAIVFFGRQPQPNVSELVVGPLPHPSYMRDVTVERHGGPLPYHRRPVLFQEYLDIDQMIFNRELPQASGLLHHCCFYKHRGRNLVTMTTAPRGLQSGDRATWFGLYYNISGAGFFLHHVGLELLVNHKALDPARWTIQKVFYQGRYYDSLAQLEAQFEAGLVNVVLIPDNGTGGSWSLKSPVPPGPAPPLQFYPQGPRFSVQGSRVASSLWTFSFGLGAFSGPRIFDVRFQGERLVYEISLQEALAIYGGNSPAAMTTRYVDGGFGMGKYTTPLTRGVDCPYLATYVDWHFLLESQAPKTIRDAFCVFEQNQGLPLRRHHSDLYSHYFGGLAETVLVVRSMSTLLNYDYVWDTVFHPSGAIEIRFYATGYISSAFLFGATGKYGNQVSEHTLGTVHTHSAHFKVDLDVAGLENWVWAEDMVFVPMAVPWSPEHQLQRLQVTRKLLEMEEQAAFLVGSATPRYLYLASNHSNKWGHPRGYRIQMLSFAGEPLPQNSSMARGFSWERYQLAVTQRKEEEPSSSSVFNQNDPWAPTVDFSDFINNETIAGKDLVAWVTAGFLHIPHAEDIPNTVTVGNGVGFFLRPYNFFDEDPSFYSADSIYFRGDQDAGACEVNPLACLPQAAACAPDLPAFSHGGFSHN
Protocol: as §1, §2
SSAO-specific amine oxidase levels in plasma were determined using a kinetic-based assay essentially as described previously (Schilter et al). Endogenous monoamine oxidases A and B were inhibited by adding pargyline to plasma samples prior to measuring H2O2 generation levels in placebo and active recipients.

plasma SSAO [9] = molecular target: T3, plasma SSAO; assay: Multiple-ascending dose trial, plasma SSAO / amine oxidase activity; format: in vivo
Protocol: as §3

[10] = test system: NASH and inflammation biomarkers; assay: NASH patient study Part 1, imaging and blood biomarkers of liver inflammation and fibrosis; format: in vivo, human
Protocol: Plasma samples are collected for measurement of plasma concentrations of study drug and metabolites. Urine samples are collected for measurement of urine concentrations of study drug and metabolites. Patients who are not participating in the PK/PD sub-study undergo trough PK sampling only. Blood collection for NASH/fibrosis markers (CK-18 (M30 and M65), PIIINP, TIMP-1, HA, PRO-C3, and C3M) and inflammation markers (hs-CRP, IL-6, ICAM-1, and VCAM-1) are also conducted. The following exploratory fibrosis scores may also be calculated: FIB-4, enhanced liver fibrosis (ELF), and NAFLD. The PRO-C3/C3M ratio may be calculated. Patients are monitored for adverse events.
as §4

plasma VAP-1 = molecular target: T4, plasma VAP-1 (Homo sapiens, UniProt Q16853); assay: NASH patient study Part 1, plasma VAP-1 activity; format: in vivo; settings: 10 mg QD, through week 12
T4 construct: from tissue; host or cells: human plasma
T4 sequence (Q16853 29-763 limits assumed): T3 sequence (Q16853 29-763 limits assumed)
Protocol: as §4

[11] = 1, 4 mg QD 7 days, 10 mg QD 14 days

plasma PK exposure increase with dose [2]: greater than dose proportional | clearance from plasma ([2]; single doses): rapidly cleared from plasma
Structure (SMILES): COC1CCN(c2ncc(OC/C(=C/F)CN)cn2)CC1.Cc1ccc(S(=O)(=O)O)cc1 [tosylate salt of Compound 1]
Subject incidence of any TEAE [1]: 2 (25) | TEAE frequency: contact dermatitis [1]: 2 (25) | TEAE frequency: sore throat [1]: 1 (12.5)

Cmax relative to IC50 for MAO-B (times lower) (MAO-B): more than 800 times | plasma PK exposure increases between dose groups ([5]; Day 1, 1, 4, 10 mg): greater than dose proportional | accumulation after multiple QD doses ([5]; each dose level): significant accumulation | Cmax relative to IC50 for MAO-A (times lower) (MAO-A): more than 800 times | duration of SSAO activity inhibition after a single dose (plasma SSAO [8]; single dose 1 mg to 10 mg): up to seven days | duration of suppression of plasma SSAO amine oxidase activity after a single dose (plasma SSAO [8]; single dose 1-10 mg): up to 1 week | plasma PK exposure increase with dose [2]: greater than dose proportional | duration of near complete inhibition of plasma SSAO amine oxidase activity after cessation of dosing (plasma SSAO [9]; after multiple QD doses): up to 2 weeks | inhibition of total amine oxidase (plasma SSAO [9]; plasma, single and multiple doses): incomplete
Structure (SMILES): COC1CCN(c2ncc(OC/C(=C/F)CN)cn2)CC1 [Compound 1, (E)-3-fluoro-2-(((2-(4-methoxypiperidin-1-yl)pyrimidin-5-yl)oxy)methyl)prop-2-en-1-amine]
plasma methylamine (MMA) levels (plasma methylamine [3]): increased; also recorded: Dose-dependent increases | discontinuation due to an adverse event [4, 11]: No subject discontinued | severity of adverse events [4, 11]: mild (grade 1) | safety and tolerability (laboratory, vital signs, ECG) ([4]; up to 10 mg QD for 14 days, healthy subjects): no notable findings; also recorded: safe and well tolerated | liver inflammation and fibrosis (rat model of NASH): decreases liver inflammation and fibrosis | severity of AEs [6]: mild or moderate | tolerability [6]: well-tolerated | plasma methylamine levels (plasma methylamine [7]; Day 1): increased in a dose proportional manner | plasma methylamine levels (plasma methylamine [7]; last day of administration, after multiple doses): further increases | changes in cT1 from baseline to end of treatment ([10]; 10 mg QD 12 weeks): no significant changes | difference from placebo in change from BL cT1, liver fat fraction, liver enzymes, or cytokeratin-18 ([10]; 10 mg QD 12 weeks): no statistically significant differences | ICAM-1 decrease relative to BL, mean (±SE) ([10]; 10 mg QD, Week 8): 34.85 (56.03) μg/L | TIMP-1 decrease relative to BL, mean (±SE) ([10]; 10 mg QD, Week 12): 29.58 (9.26) ng/ml | VCAM-1 decrease relative to BL, mean (±SE) ([10]; 10 mg QD, Week 12): 24.327 (20.5850) μg/L | inhibition of plasma VAP-1 activity (plasma VAP-1): sustained suppression; also recorded: near complete inhibition
